From patent US11963939B2, “Use of N-acetylcysteine to treat central nervous system disorders” (Neuronasal, Inc., priority 2017, dated 2024)

How the values were obtained:
primary cortical neurons = assay: cells; assay type: cell-based, mouse; settings: Mus musculus, Primary cortical neuron; 100 μM hemin, primary cortical neurons; read-out: EC50 for reduction of hemin-induced toxicity/ferroptosis
Experimental: Primary cortical neuronal cultures: Primary cortical neurons were collected from embryonic (E15) CD1 mice. The cortices of the mice were dissected, homogenized, and plated in minimum essential medium containing 10% fetal bovine serum (FBS), 5% horse serum, and 1% penicillin/streptomycin in 96-well plates, 6-well plates, or 10-cm dishes. The neurons were maintained at 37° C. with 5% CO2. All experiments were conducted 24 hours after plating.
In vitro ICH model: Ferroptosis is a type of programmed cell death that is dependent on iron, and is characterized by the accumulation of lipid peroxides. Ferroptosis is genetically and biochemically distinct from other forms of regulated cell death such as apoptosis. Ferroptosis is initiated by the failure of the glutathione-dependent antioxidant defenses, resulting in unchecked lipid peroxidation and eventual cell death.
Cell death was induced in primary cortical neurons by treating the neurons with hemin, a blood breakdown product. For the neuroprotection studies, cells were treated with hemin (100 μM) in the presence of NAC (0.1 mM to 1mM), 6-hydroxy-2,5,7,8-tetramethylchroman-2-carboxylic acid (trolox; 0.1 μM to 100 μM), β-carotene (0.1 μM to 100 μM) α-lipoic acid (0.01 mM to 2 mM), glutathione ethyl ester (1 mM to 10 mM), oxothiazolidine-4-carboxylate (1 mM to 10 mM), cystamine (0.1 μM to 10 μM), or nordihydroguaiaretic acid (0.1 μM to 10 μM). Cell viability was analyzed 24 h after treatment. The cells were rinsed with warm phosphate-buffered saline (PBS) and assessed using an MTT assay. The fidelity of the MTT assays in measuring viability was verified by calcein-AM/ethidium homodimer-1 staining (Live/Dead assay).
The ability of NAC to protect cells was investigated in a hemin model of hemorrhagic stroke. The in vitro model of ICH involved the administration of hemin, a breakdown product of hemoglobin from lysed blood, to trigger cell death. Treatment of primary cortical neurons with 100 μM hemin induced widespread cell death through a ferroptotic mechanism, which was quantified with MTT and qualitatively observed using live/dead staining. Living cells were labeled with calcein-AM, and dead cells were labeled with ethidium homodimer. […] Scale bars: 100 μm.
A systematic pharmacological screening of oxidized lipid species inhibitors in the context of hemin-induced cell death was performed in primary cortical neurons. Primary cortical neurons were co-treated with hemin and a non-specific or enzymatic lipid peroxidation inhibitor. The MTT assays were performed 18 h following the co-treatment.

[1] = system: collagenase-induced mouse model of ICH; assay: In vivo collagenase-induced mouse model of ICH (Fluoro-Jade staining, corner task, adhesive tape removal task, hematoma size)
Experimental: In vivo collagenase-induced mouse model of ICH: Male C57BL/6 mice (8 to 10 weeks of age) or mice (10 to 12 weeks of age) were anesthetized with isoflurane (2% to 5%) and placed on a stereotaxic frame. During the procedure, the animal's body temperature was maintained at 37° C. with a homeothermic blanket. 1 mL of collagenase (0.075 IU) was infused into the right striatum at a flow rate of 0.120 μL/min using a Nanomite® syringe pump and a syringe. Relative to the bregma point, the stereotaxic coordinates of the injection were: lateral, −0.20; anteroposterior, 0.62; and dorsoventral, −0.40. In control animals, 1 mL of saline was infused. The treatment group received NAC (75 mg/kg or 300 mg/kg in normal saline, I.P.) once a day for 7 days starting at 2 h after collagenase infusion. For combinatorial studies, NAC (40 mg/kg, I.P.) and PGE 2 (10 μM, ICV) were administered to the mice 2 h after the collagenase injection, and then NAC (40 mg/kg) was administered once daily for 7 days. The control groups received the vehicle (normal saline) alone. The animals were randomized to sham or ICH groups. The identities of the mice that received vehicle or NAC were masked to surgeons who performed the experiments. […] Proper postoperative care was provided until the animals recovered completely.
Behavioral analysis: The corner task assessed integrated sensorimotor function in the stimulation of vibrissae (sensory neglect) and rearing (motor response). Mice were placed between two cardboard pieces that formed a corner with a 30° angle. While maintaining the 30° angle, the boards were gradually moved toward the mouse until the mouse approached the corner, reared upward, and turned 180° to face the open end. The direction (left or right) in which the mouse turned was recorded for each trial. Ten trials were performed for each mouse.
For the sensory neglect task (adhesive tape removal task), adhesive tape was placed on the planter region of the forward paw (right and left) of each mouse. The time from which the tape was applied to when the mouse successfully removed the tape was recorded for each paw. A maximum of 300 s for each paw was allowed.
Fluoro-Jade® B staining: Neurodegeneration of cells was assessed in mice with collagenase-induced ICH using Fluoro-Jade® B staining. 40 μM brain sections were mounted on gelatin-coated slides and dried at room temperature overnight. The sections were immersed in a graded series of alcohol solutions before being immersed in a 0.06% potassium permanganate (KMnO4) solution for 15 min. Sections were washed with water before being immersed in a 0.001% Fluoro-Jade® staining solution with gentle shaking in the dark for 30 min. The sections were then washed with water and dried overnight at room temperature in the dark before being dehydrated and coverslipped with DPX. Fluoro-Jade® B staining was examined within perihematoma or hematoma regions using a fluorescence microscope. Quantification of Fluoro-Jade® B staining was performed using three brain sections (anterior to posterior of hematoma) using Metamorph analysis.
The vehicle or NAC was then administered daily up to 7 days following the ictus. Neuronal loss was determined using a non-specific marker of neurodegeneration, Fluoro-Jade® staining. […] Mouse behavior was assessed using a corner task (spatial neglect) and an adhesive tape removal task (sensory neglect). Mouse behavior was assessed on day 1, 3, and 7 after the induction of ICH.

lipid protein adducts = assay: Hemin-induced lipid protein adduct formation (Bt-AA, streptavidin-HRP Western blot) in primary neurons; assay type: cell-based, mouse
Experimental: Electrophilic attack by ALOX5 products could alter cellular protein-mediated signaling to trigger cell death. Arachidonic acid (AA) tagged with biotin (Bt-AA) was used to monitor the formation of covalent protein adducts. To test whether hemin was sufficient to catalyze the formation of protein-reactive lipid species, primary neurons were treated with hemin at concentrations of 5 μM-50 μM for 4 h. Lipid protein adducts were detected by Western blots probed with Streptavidin-HRP. Bt-AA incorporation into protein increased with increasing concentrations of hemin, and significant lipid protein adducts were detected at 50 μM hemin. […] The blot is representative from replicates of three experiments. The arrow indicates the decrease in lipid protein adduct formation.

[2] = NAC 40 mg/kg i.p. and/or PGE2 10 μM ICV, days 1, 3, 7

## CC(=O)N[C@@H](CS)C(=O)O [NAC, N-acetylcysteine]
Primary cortical neurons
  EC50: 500 µM
[1]; 75 mg/kg or 300 mg/kg NAC vs control ICH group
  Hematoma size by light microscopy: No significant difference
[1]; 300 mg/kg NAC, days 1, 3, 7
  Adhesive tape removal task (sensory neglect): improvements in sensory neglect were observed
  Corner turn task deficits (spatial neglect): corrected by administration of 300 mg/kg NAC
[1]; [2]
  Sensory neglect (adhesive tape removal task) behavioral deficits: no effect
  Spatial neglect (corner task) behavioral deficits: no effect
[1]; NAC 40 mg/kg i.p. daily 7 days and/or dmPGE2 10 μM ICV 2 h post-injury
  Neuronal degeneration in perihematomal regions (Fluoro-Jade staining): no significant effect
[1]; NAC 300 mg/kg I.P. daily from 2 h post-ICH, day 7
  Neuronal degeneration in perihematomal regions (Fluoro-Jade staining): reduced neuronal degeneration in perihematomal regions
[1]; NAC 300 mg/kg, 24 h after collagenase injection
  Collagenase activity by hematoma size: did not inhibit or affect collagenase activity
Lipid protein adducts; non-protective doses: NAC 0.1 mM, vitamin E 1 μM, zileuton 1 μM
  AA-protein adduct formation: did not decrease AA-protein adduct formation
Lipid protein adducts; protective doses: NAC 1 mM, vitamin E 10 μM, zileuton 10 μM
  Lipid protein adduct formation: decreased lipid protein adduct formation
ICH model of rats; 40 mg/kg or 75 mg/kg, 2 h post-ICH
  Lesion volume and functional recovery: not effective in reducing lesion volume or improving functional recovery
ICH model of rats; 300 mg/kg
  Toxicity of higher doses: caused significant toxicity in rats, including paralytic ileus and/or death
ICH model of rats; ICH model
  Highest dose tolerated without toxicity: 40 mg/kg
